Assay results from paper PMC12435366, “Maleic anhydride derived diphosphines: adaptable chelators for receptor-targeted ^99mTc, ^64Cu and ^188Re radiotracers” (Chemical Science, 2025).

Columns and labels:
[1] = test system: PSMA-expressing DU145-PSMA+ prostate cancer cells; assay: In vitro uptake of 99mTc tracers in DU145-PSMA+ cells; assay type: cell-based; details: for uptake in DU145-PSMA+ cells (% added radioactivity): 50 kBq purified tracer, 5 × 10^5 cells seeded per well, 37 °C, 1 h incubation, mean ± SD, biological triplicate; for blocking of cell uptake by PSMA inhibitor PMPA: co-incubation with PMPA
Description: (§1) To compare the relative uptake and specificity of the new radiotracers for PSMA, [^99mTcO2(DP^Ph-PSMAt)2]^+, [^99mTcO2(DP^An-PSMAt)2]^+ and [^99mTcO2(DP^MEP-PSMAt)2]^+ (50 kBq) were purified from unreacted ^99mTc precursors and excess DP-PSMAt peptide, and each incubated with PSMA-expressing DU145-PSMA+ prostate cancer cells[33] or LNCaP prostate cancer cells (5 × 10^5 cells). After 1 h incubation, uptake of each radiotracer was quantified. […]
(§2) 4.9 99mTc uptake in DU145, DU145-PSMA+ and LNCaP cells
(§3) The following experiment was performed in biological triplicate.
(§4) A panel of cell lines were selected that either expressed GCP(II)/PSMA (DU145-PSMA+ (genetically modified to express PSMA),12 and LNCaP (CRL‐1740)), or had low GCP(II)/PSMA expression (DU145 (HTB-81)). All cell lines were cultured in RPMI 1640 medium (R0883, Sigma) containing 10% foetal bovine serum, 2 mM L-glutamine, and 100 U mL−1 penicillin and 100 µg mL−1 streptomycin. Cells were maintained at 37 °C and 5% CO 2. Cells were seeded in 6-well plates at a density of 5 × 10^5 cells per well […]
in 2 mL complete media to achieve 70–80% confluency the following day. Prior to treating cells, cell medium (1 mL/well) was replaced. Solutions containing either [99mTcO2(DPPh-PSMAt)2]+, [99mTcO2(DPAn-PSMAt)2]+ or [99mTcO2(DPMEP-PSMAt)2]+ (50 kBq in 10 μL of PBS, >95% radiochemical purity) were added to each well, and the cells incubated at 37 °C for 1 h. Uptake studies were also performed after a 2 min incubation with the PSMA inhibitor 2 -(phosphonomethyl)pentane -1,5-dioic acid (PMPA; 30 µL of 750 µM PMPA solution/well). After 60 min incubation, the supernatant was removed, and the cells were washed with PBS solution (2 × 1 mL). The cells were lysed with ice cold radioimmunoprecipitation assay buffer (RIPA buffer, 500 μL; 150 mM sodium chloride, 0.1% w/w sodium dodecyl sulfate (SDS), 0.5% w/w sodium deoxycholate (NaDOC), 1% w/w Triton-X) and samples were collected for radioactivity counting. Results are depicted as means ± SD of independent biological experiments (performed on different days with different radiotracer preparations). […]
Biodistribution studies using 99mTc radiotracers were performed once a tumour had reached 150– 300 mm3 in volume (2–7 weeks after injection).
SCID/beige mice bearing DU145-PSMA+ prostate cancer tumour xenografts
SPECT/CT scanning and biodistribution studies: The 99mTc radiotracers (3.9–4.5 MBq, 3 mice per group, containing DPAn-PSMAt = 3.0 µg or DPMEP-PSMAt = 3.5 µg) were administered via tail vein injection under isoflurane anaesthesia. Following this, SPECT/CT scanning was carried out in one of two methods outlined below, to maintain 2 h biodistribution timepoints : i. The mouse was positioned on a single heated bed in a nanoScan SPECT/CT 80W scanner (Mediso Ltd., Budapest, Hungary) calibrated for 99mTc. A helical CT scan was acquired (50 kV X-ray source, 170 ms exposure time in 360 projections over 3 min). At 15 min post -injection, whole body SPECT scans were acquired (1 × 15 min, 3 × 30 min, conducted sequentially) with a frame time of 13 s and 26 s (using a 4-head scanner with 4 × 9 [1.4 mm] pinhole collimators

[2] = test system: parental DU145 cells that do not express PSMA; assay: In vitro uptake of 99mTc tracers in parental DU145 cells; assay type: cell-based; details: PSMA-negative DU145 cells, 1 h
Description: as §1, §2, §3, §4
in 2 mL complete media to achieve 70–80% confluency the following day. […] The cells were lysed with ice cold radioimmunoprecipitation assay buffer (RIPA buffer, 500 μL; 150 mM sodium chloride, 0.1% w/w sodium dodecyl sulfate (SDS), 0.5% w/w sodium deoxycholate (NaDOC), 1% w/w Triton-X) and samples were collected for radioactivity counting. […]

Row | SMILES | uptake in DU145-PSMA+ cells (% added radioactivity) [1] | mean difference in uptake compared with [^99mTcO2(DP^MEP-PSMAt)2]^+ ([1]; DU145-PSMA+ cells, 1 h) | mean difference in uptake compared with [^99mTcO2(DP^Ph-PSMAt)2]^+ ([1]; DU145-PSMA+ cells, 1 h) | blocking of cell uptake by PSMA inhibitor PMPA ([1]; DU145-PSMA+ cells, 1 h) | uptake in parental DU145 cells [2]
1 | COc1ccc(P(/C(C(=O)O)=C(/C(=O)NCCOCCOCCOCCOCCC(=O)NCCCC[C@H](NC(=O)N[C@@H](CCC(=O)O)C(=O)O)C(=O)O)P(c2ccc(OC)cc2)c2ccc(OC)cc2)c2ccc(OC)cc2)cc1 [[^99mTcO2(DP^An-PSMAt)2]^+, metal not drawn] | 8.9 ± 2.1 %AR | 6.2 %AR | 6.5 %AR | blocked | negligible uptake
2 | COCCOc1ccc(P(/C(C(=O)O)=C(/C(=O)NCCOCCOCCOCCOCCC(=O)NCCCC[C@H](NC(=O)N[C@@H](CCC(=O)O)C(=O)O)C(=O)O)P(c2ccc(OCCOC)cc2)c2ccc(OCCOC)cc2)c2ccc(OCCOC)cc2)cc1 [[^99mTcO2(DP^MEP-PSMAt)2]^+, metal not drawn] | 2.7 ± 0.8 %AR | – | 12.7 %AR | blocked | negligible uptake
